Reference: patent publication US12264163B2, “Compounds and methods for treating fibrotic pathologies” (Mayo Foundation for Medical Education and Research, priority 2019, dated 2025)

Experiments:
YAP/TAZ = YAP/TAZ nuclear localization in IPF patient-derived lung fibroblasts treated with dopaminergic agonists; format: cell-based, human; conditions: 10 μM, 2 hours
Description: IPF patient-derived lung fibroblasts cells treated 2 hours prior to fixation with diverse dopaminergic agonists (10 μM). N=4 different patient samples. % nuclear localization of YAP/TAZ was determined using automated imaging software. Scale bar represents 100 μm.
(§1) Media was then exchanged for the indicated conditions for each experiment. […] Cells or tissue sections were incubated overnight with mouse monoclonal antibody against αSMA (Sigma-Aldrich F3777), and/or a rabbit monoclonal antibody against YAP/TAZ (Cell Signaling D24E4) diluted 1:200 in PBS with 1% BSA. Cells were then washed and exposed to flourescence-conjugated secondary antibodies (Invitrogen) diluted 1:1000 and DAPI (Thermo Fisher Scientific). Images were taken with a Cytation5 (BioTek) microscope. For scoring αSMA positive cells (FIG. 12), an observer blinded to the treatment conditions counted αSMA-positive cells using a visual threshold for bright fibrous staining; a minimum of 200 cells was counted for each condition. YAP/TAZ localization was quantified (FIGS. 6-10, 24-26, and 29-30) using Gen5 (Biotek) software. Images were taken at 4× magnification of both DAPI and YAP/TAZ staining. […] Quantification of double positive (YAP/TAZ and αSMA) cells from lung tissue sections (FIG. 17-21) was performed similarly; however separate thresholds were established for both YAP/TAZ and αSMA. A minimum of 4000 cells was quantified for each mouse.

αSMA = αSMA intensity (fibroblast activation) in IPF patient-derived lung fibroblasts + TGFβ, dopaminergic agonist library; format: cell-based, human; conditions: 1 μM + TGFβ, 72 hours
Description: as §1

Compound: CCCN(CCc1ccccc1)C1CCc2c(O)cccc2C1.Cl (racemic) [(±)-2-(N-phenylethyl-N-propyl)amino-5-hydroxytetralin]
- Nuclear localization (% of total cells) (YAP/TAZ; IPF-1 patient fibroblasts): 68.85 % of total cells
- Nuclear localization (% of total cells) (YAP/TAZ; IPF-2 patient fibroblasts): 60.86 % of total cells
- Nuclear localization (% of total cells) (YAP/TAZ; IPF-3 patient fibroblasts): 68 % of total cells
- Nuclear localization (% of total cells) (YAP/TAZ; IPF-4 patient fibroblasts): 56.552 % of total cells
- αSMA intensity (% of DMSO control) (αSMA; IPF-1 patient fibroblasts): 65.43 % of DMSO control
- αSMA intensity (% of DMSO control) (αSMA; IPF-2 patient fibroblasts): 52.77 % of DMSO control
- αSMA intensity (% of DMSO control) (αSMA; IPF-3 patient fibroblasts): 60.4844 % of DMSO control
- αSMA intensity (% of DMSO control) (αSMA; IPF-4 patient fibroblasts): 51.1 % of DMSO control

Compound: Br.C=CCN1CCc2c(cc(O)c(O)c2Br)[C@@H](c2ccccc2)C1 [R(+)-6-BROMO-APB•HBr, R(+)-6-BROMO-APB]
- Nuclear localization (% of total cells) (YAP/TAZ; IPF-1 patient fibroblasts): 28.37 % of total cells
- Nuclear localization (% of total cells) (YAP/TAZ; IPF-2 patient fibroblasts): 38 % of total cells
- Nuclear localization (% of total cells) (YAP/TAZ; IPF-3 patient fibroblasts): 36 % of total cells
- Nuclear localization (% of total cells) (YAP/TAZ; IPF-4 patient fibroblasts): 25.65 % of total cells
- αSMA intensity (% of DMSO control) (αSMA; IPF-1 patient fibroblasts): 11.25 % of DMSO control
- αSMA intensity (% of DMSO control) (αSMA; IPF-2 patient fibroblasts): 2.507 % of DMSO control
- αSMA intensity (% of DMSO control) (αSMA; IPF-3 patient fibroblasts): 0.8506 % of DMSO control
- αSMA intensity (% of DMSO control) (αSMA; IPF-4 patient fibroblasts): 22.82 % of DMSO control

Compound: C=CCN1C[C@H](C(=O)N(CCCN(C)C)C(=O)NCC)C[C@@H]2c3cccc4[nH]cc(c34)C[C@H]21 [Cabergoline]
- Nuclear localization (% of total cells) (YAP/TAZ; IPF-1 patient fibroblasts): 57.02 % of total cells
- Nuclear localization (% of total cells) (YAP/TAZ; IPF-2 patient fibroblasts): 57.41 % of total cells
- Nuclear localization (% of total cells) (YAP/TAZ; IPF-3 patient fibroblasts): 45.95 % of total cells
- Nuclear localization (% of total cells) (YAP/TAZ; IPF-4 patient fibroblasts): 68.69 % of total cells

Compound: Br.NC1CCc2cc(O)c(O)cc2C1 (stereo not drawn) [6,7-ADTN•HBr, 6,7-ADTN]
- Nuclear localization (% of total cells) (YAP/TAZ; IPF-1 patient fibroblasts): 43.89 % of total cells
- Nuclear localization (% of total cells) (YAP/TAZ; IPF-2 patient fibroblasts): 44 % of total cells
- Nuclear localization (% of total cells) (YAP/TAZ; IPF-3 patient fibroblasts): 65.5 % of total cells
- Nuclear localization (% of total cells) (YAP/TAZ; IPF-4 patient fibroblasts): 52.65 % of total cells
- αSMA intensity (% of DMSO control) (αSMA; IPF-1 patient fibroblasts): 37.14 % of DMSO control
- αSMA intensity (% of DMSO control) (αSMA; IPF-2 patient fibroblasts): 4.182 % of DMSO control
- αSMA intensity (% of DMSO control) (αSMA; IPF-3 patient fibroblasts): 9.909 % of DMSO control
- αSMA intensity (% of DMSO control) (αSMA; IPF-4 patient fibroblasts): 4.888 % of DMSO control

Compound: CCCN(CCC)CCc1ccc(O)c(O)c1 [Dipropyldopamine•HBr, Dipropyldopamine]
- Nuclear localization (% of total cells) (YAP/TAZ; IPF-1 patient fibroblasts): 69.18 % of total cells
- Nuclear localization (% of total cells) (YAP/TAZ; IPF-2 patient fibroblasts): 74.36 % of total cells
- Nuclear localization (% of total cells) (YAP/TAZ; IPF-3 patient fibroblasts): 65.5 % of total cells
- Nuclear localization (% of total cells) (YAP/TAZ; IPF-4 patient fibroblasts): 51.82 % of total cells
- αSMA intensity (% of DMSO control) (αSMA; IPF-1 patient fibroblasts): 48.72 % of DMSO control
- αSMA intensity (% of DMSO control) (αSMA; IPF-2 patient fibroblasts): 28.11 % of DMSO control
- αSMA intensity (% of DMSO control) (αSMA; IPF-3 patient fibroblasts): 40.34 % of DMSO control
- αSMA intensity (% of DMSO control) (αSMA; IPF-4 patient fibroblasts): 25.86 % of DMSO control

Compound: R(−)-2,10,11-Trihydroxyaporphine [R(−)-2,10,11-Trihydroxyaporphine•HBr]
- Nuclear localization (% of total cells) (YAP/TAZ; IPF-1 patient fibroblasts): 13.71 % of total cells
- Nuclear localization (% of total cells) (YAP/TAZ; IPF-2 patient fibroblasts): 22.15 % of total cells
- Nuclear localization (% of total cells) (YAP/TAZ; IPF-3 patient fibroblasts): 24.15 % of total cells
- Nuclear localization (% of total cells) (YAP/TAZ; IPF-4 patient fibroblasts): 17.75 % of total cells
- αSMA intensity (% of DMSO control) (αSMA; IPF-1 patient fibroblasts): 2.888 % of DMSO control
- αSMA intensity (% of DMSO control) (αSMA; IPF-2 patient fibroblasts): 1.698 % of DMSO control
- αSMA intensity (% of DMSO control) (αSMA; IPF-3 patient fibroblasts): 7.646 % of DMSO control
- αSMA intensity (% of DMSO control) (αSMA; IPF-4 patient fibroblasts): 15.9942 % of DMSO control

Compound: Br.CCCN1CCc2cc(O)cc3c2[C@H]1Cc1ccc(O)c(O)c1-3 [R(−)-2,10,11-Trihydroxy-N-propyl-noraporphine]
- Nuclear localization (% of total cells) (YAP/TAZ; IPF-1 patient fibroblasts): 32.87 % of total cells
- Nuclear localization (% of total cells) (YAP/TAZ; IPF-2 patient fibroblasts): 35.25 % of total cells
- Nuclear localization (% of total cells) (YAP/TAZ; IPF-3 patient fibroblasts): 37.7 % of total cells
- Nuclear localization (% of total cells) (YAP/TAZ; IPF-4 patient fibroblasts): 25.36 % of total cells
- αSMA intensity (% of DMSO control) (αSMA; IPF-1 patient fibroblasts): 4.895 % of DMSO control
- αSMA intensity (% of DMSO control) (αSMA; IPF-2 patient fibroblasts): 8.436 % of DMSO control
- αSMA intensity (% of DMSO control) (αSMA; IPF-3 patient fibroblasts): 2.988 % of DMSO control
- αSMA intensity (% of DMSO control) (αSMA; IPF-4 patient fibroblasts): 25.61 % of DMSO control

Compound: CN1Cc2ccccc2[C@@H]2c3cccc4[nH]cc(c34)C[C@H]21 [CY 208-243]
- Nuclear localization (% of total cells) (YAP/TAZ; IPF-1 patient fibroblasts): 20.52 % of total cells
- Nuclear localization (% of total cells) (YAP/TAZ; IPF-2 patient fibroblasts): 39.79 % of total cells
- Nuclear localization (% of total cells) (YAP/TAZ; IPF-3 patient fibroblasts): 41.17 % of total cells
- Nuclear localization (% of total cells) (YAP/TAZ; IPF-4 patient fibroblasts): 19.82 % of total cells
- αSMA intensity (% of DMSO control) (αSMA; IPF-1 patient fibroblasts): 21.01 % of DMSO control
- αSMA intensity (% of DMSO control) (αSMA; IPF-2 patient fibroblasts): 2.28 % of DMSO control
- αSMA intensity (% of DMSO control) (αSMA; IPF-3 patient fibroblasts): 2.611 % of DMSO control
- αSMA intensity (% of DMSO control) (αSMA; IPF-4 patient fibroblasts): 9.643 % of DMSO control
